The values below come from patent US20120115852A1, “HETEROCYCLIC COMPOUNDS AS AUTOTAXIN INHIBITORS” (Merck Patent Gesellschaft Mit Beschrankter Haftung, priority 2009, published 2012).

The assay deals with T1, recombinant autotaxin (Homo sapiens, UniProt Q13822).
T1 construct: made in house; host or cells: Hi5 insect cells (baculovirus)
Nature of the assay: Autotaxin test (enzyme test), Amplex Red fluorescence with LPC substrate. The settings on record: autotaxin inhibition (enzyme test); for remaining activity at 10 µM: 10 μM compound, read-out: % Control at 10 μM. The assay is classed as biochemical. The procedure:
Autotaxin Inhibition (Enzyme Test)
Autotaxin Test (Enzyme Test)
The autotaxin activity is measured indirectly using Amplex Red reagent. Amplex Red is measured here as fluorogenic indicator for the H2O2 formed. In detail, autotaxin converts the substrate lysophosphatidylcholine (LPC) into phosphocholine and lysophosphatidylic acid (LPA). After this reaction, the phosphocholine is reacted with alkaline phosphatase to give inorganic phosphate and choline. In the next step, choline is oxidised by choline oxidase to give betaine, with formation of H2O2. H2O2 reacts with Amplex Red reagent in the presence of peroxidase (horseradish peroxidase) in a 1:1 stoichiometry and forms the highly fluorescent resorufin. The fluorescence is measured in a reaction-dependent kinetic mode in order that fluorescent signals from possible other fluorescent substances which are not involved in the reaction can be corrected out.
3 μl of a standard solution or of the test substances (substances with the name A(n)) in individual concentrations dissolved in 20 mM Hepes pH 7.2 with a maximum of 11% of DMSO are pre-incubated together with 20 μl (19 ng) of highly purified recombinant autotaxin in test buffer in a black microtitre plate provided with 384 wells at 22° C. for 30 min. The reaction is then initiated by addition of 10 μl of L-α-lysophosphatidylcholine (LPC), where the final concentration of LPC is 75 μM. The mixture is incubated at 37° C. for 90 min. After the incubation, Amplex Red reagent, peroxidase (horseradish peroxidase) and choline oxidase is added, and the fluorescence is immediately measured at 612 nm with excitation of 485 nm in a “Tecan Ultra multimode” reader. The activity of autotaxin is calculated indirectly via detection of the H2O2 formed.
• Microtitre plate: PS microplate, 384 wells, small volume, black Corning, Cat#3677 • Protein: recombinant autotaxin (Baculovirale Hi5 Expression) • Substrate: L-α-lysophosphatidylcholine (chicken egg)); Avanti Polar Lipids #830071 P • Standard: C14 LPA, Avanti Polar Lipids, Cat#857120P • Detection reagent: Amplex Red reagent; Invitrogen #A12222; 5 mg dissolved in 1.923 ml of DMSO peroxidase type VI-A (horseradish) from Sigma #P6782; 5 mg dissolved in 7.45 ml of test buffer, choline oxidase; Sigma # C5896; 50 U dissolved in 2.47 ml of test buffer • Detection reagent mix: 1:50 dilution of detection reagent in test buffer • Test buffer: 10 mM Tris HCl, Merck, Cat #1.08219, pH 8, 1 mM; CaCl2×2 H2O, Merck #1.02382

Bounds are passed on as bounds.

As for `CC(C)(C)CC(=O)N1CCN2C(=O)c3cc(-c4ccc(Cl)c(Cl)c4)ccc3NC(=O)C2C1` (centres unmarked) [Compound A104, 7-(3,4-Dichlorophenyl)-2-(3,3-dimethylbutyryl)-1,3,4,11a-tetrahydro-2H,10H-2,4a,10-triaza-dibenzo[a,d]cycloheptene-5,11-dione], the remaining activity at 10 µM was -13% and the IC50 (commonly the concentration that inhibits the measured activity by half) was in the range of 100 to 1000 nM.

`CC(C)(C)CC(=O)N1CCN2C(=O)c3cc(-c4cc(F)ccc4F)ccc3NC(=O)C2C1` (centres unmarked) [Compound A89, 7-(2,5-Difluorophenyl)-2-(3,3-dimethylbutyryl)-1,3,4,11a-tetrahydro-2H,10H-2,4a,10-triaza-dibenzo[a,d]cycloheptene-5,11-dione]: the remaining activity at 10 µM amounted to 4% and the IC50 was greater than 1000 nM. Take `O=C1Nc2ccc(-c3ccccc3F)cc2C(=O)N2CCN(C(=O)C3CCCC3)C[C@@H]12` [Compound B10]: the remaining activity at 10 µM amounted to 76%.

For the compound `CC(C)(C(=O)N1CCN2C(=O)c3cc(-c4ccc(Cl)cc4F)ccc3NC(=O)C2C1)c1ccccc1` (centres unmarked) [Compound A58, 7-(4-Chloro-2-fluorophenyl)-2-(2-methyl-2-phenyl-propionyl)-1,3,4,11a-tetrahydro-2H,10H-2,4a,10-triazadibenzo[a,d]cycloheptene-5,11-dione], the remaining activity at 10 µM is -27% and the IC50 is greater than 1000 nM. Turning to `CC(C)(C)CC(=O)N1CCN2C(=O)c3cc(-c4ccc(F)cc4F)ccc3NC(=O)C2C1` (centres unmarked) [Compound A91, 7-(2,4-Difluorophenyl)-2-(3,3-dimethylbutyryl)-1,3,4,11a-tetrahydro-2H,10H-2,4a,10-triaza-dibenzo[a,d]cycloheptene-5,11-dione], the remaining activity at 10 µM is -6% and the IC50 was greater than 1000 nM. On to `O=C1Nc2ccc(-c3ccc(Cl)cc3)cc2C(=O)N2CCN(C(=O)Cc3ccccc3)CC12` (centres unmarked) [Compound A32, 7-(4-Chlorophenyl)-2-phenylacetyl-1,3,4,11a-tetrahydro-2H,10H-2,4a,10-triazadibenzo[a,d]-cycloheptene-5,11-dione], for which the remaining activity at 10 µM is 76%. With `O=C1Nc2ccc(-c3ccc(Cl)cc3)cc2C(=O)N2CCN(C(=O)Nc3ccccc3)CC12` (centres unmarked) [Compound A48, N-Phenyl-7-(4-chlorophenyl)-5,11-dioxo-3,4,5,10,11,11a-hexahydro-1H-2,4a,10-triaza-dibenzo[a,d]cycloheptene-2-carboxamide], the remaining activity at 10 µM came to 20% and the IC50 was greater than 1000 nM. Consider `CN(C)CCN1CCC[C@H]1C(=O)N1CCN2C(=O)c3cc(-c4ccc(Cl)cc4F)ccc3NC(=O)C2C1` (stereo partly drawn) [Compound A115, 7-(4-Chloro-2-fluorophenyl)-2-[(S)-1-(2-dimethyl-aminoethyl)pyrrolidine-2-carbonyl]-1,3,4,11a-tetrahydro-2H,10H-2,4a,10-triaza-dibenzo[a,d]cycloheptene-5,11-dione], for which the remaining activity at 10 µM was found to be 80% and the IC50 is greater than 1000 nM. Take `CC(C)(C)CC(=O)N1CCN2C(=O)c3cc(OC(F)(F)F)ccc3NC(=O)C2C1` (centres unmarked) [Compound A133, 2-(3,3-Dimethylbutyryl)-7-trifluoromethoxy-1,3,4,11a-tetrahydro-2H,10H-2,4a,10-triaza-dibenzo[a,d]cycloheptene-5,11-dione]: the remaining activity at 10 µM amounted to 27% and the IC50 is greater than 1000 nM. For the compound `O=C1Nc2ccc(-c3ccc(Cl)cc3)cc2C(=O)N2CCN(C(=O)C3CCCN3C(=O)c3ccncc3)CC12` (centres unmarked) [Compound A110, 7-(4-Chlorophenyl)-2-[1-(pyridine-4-carbonyl)-pyrrolidine-2-carbonyl]-1,3,4,11a-tetrahydro-2H,10H-2,4a,10-triazadibenzo[a,d]cycloheptene-5,11-dione], the remaining activity at 10 µM came to 51% and the IC50 is greater than 1000 nM. Consider `COc1ccc(-c2ccc3c(c2)C(=O)N2CCN(C(=O)c4cccc(F)c4)C[C@@H]2C(=O)N3)cc1` [Compound A11, (R)-2-(3-Fluorobenzoyl)-7-(4-methoxyphenyl)-1,3,4,11a-tetrahydro-2H,10H-2,4a,10-triaza-dibenzo[a,d]cycloheptene-5,11-dione], for which the remaining activity at 10 µM was 69%. In the case of `Cn1cc(-c2ccc3c(c2)C(=O)N2CCN(C(=O)CC(C)(C)C)CC2C(=O)N3)cn1` (centres unmarked) [Compound A108, 2-(3,3-Dimethylbutyryl)-7-(1-methyl-1H-pyrazol-4-yl)-1,3,4,11a-tetrahydro-2H,10H-2,4a,10-triaza-dibenzo[a,d]cycloheptene-5,11-dione], the remaining activity at 10 µM came out at 90%. Regarding `CN(C)CCN1C(=O)[C@@H]2CN(C(=O)CC(C)(C)C)CCN2C(=O)c2cc(-c3ccc(Cl)cc3F)ccc21` [Compound A163], the remaining activity at 10 µM worked out at 10% and the IC50 was greater than 1000 nM. Taken in the same sequence, the figures for `CC(C)(C)CC(=O)N1CCN2C(=O)c3cc(-c4ccc(Cl)cc4F)ccc3N(CCO)C(=O)[C@@H]2C1` [Compound A160] were 2% and 100 to 1000 nM.

`O=C1Nc2ccc(-c3ccc(Cl)cc3F)cc2C(=O)N2CCN(C(=O)[C@@H]3CCCN3C3CCNCC3)C[C@@H]12` [Compound A126, (S)-7-(4-Chloro-2-fluorophenyl)-2-((S)-1-piperidin-4-ylpyrrolidine-2-carbonyl)-1,3,4,11a-tetrahydro-2H,10H-2,4a,10-triazadibenzo[a,d]cycloheptene-5,11-dione]: the remaining activity at 10 µM was found to be 20% and the IC50 is greater than 1000 nM. In the case of `O=C1Nc2ccc(-c3ccccc3F)cc2C(=O)N2CCN(C(=O)[C@@H]3CSCN3)CC12` (stereo partly drawn) [Compound A12, 7-(2-Fluorophenyl)-2-((R)-thiazolidine-4-carbonyl)-1,3,4,11a-tetrahydro-2H,10H-2,4a,10-triaza-dibenzo[a,d]cycloheptene-5,11-dione], the IC50 is greater than 1000 nM.

Turning to `COC(C(=O)N1CCN2C(=O)c3cc(-c4ccc(Cl)cc4)ccc3NC(=O)C2C1)c1ccccc1` (centres unmarked) [Compound A42, 7-(4-Chlorophenyl)-2-(2-methoxy-2-phenylacetyl)-1,3,4,11a-tetrahydro-2H,10H-2,4a,10-triaza-dibenzo[a,d]cycloheptene-5,11-dione], the remaining activity at 10 µM was found to be 12% and the IC50 is greater than 1000 nM. For `O=C1Nc2ccc(-c3ccc(Cl)cc3)cc2C(=O)N2CCN(C(=O)[C@H](O)c3ccccc3)CC12` (stereo partly drawn) [Compound A43, 7-(4-Chlorophenyl)-2-((R)-2-hydroxy-2-phenylacetyl)-1,3,4,11a-tetrahydro-2H,10H-2,4a,10-triazadibenzo[a,d]cycloheptene-5,11-dione], the remaining activity at 10 µM worked out at 31% and the half-maximal inhibitory concentration (IC50) was greater than 1000 nM. Consider `O=C1Nc2ccc(-c3ccccc3)cc2C(=O)N2CCN(C(=O)[C@@H]3CSCN3)C[C@H]12` [Compound B18], for which the remaining activity at 10 µM was 56%. Consider `O=C1Nc2ccc(-c3ccc(Cl)cc3F)cc2C(=O)N2CCN(C(=O)CC3CC3)CC12` (centres unmarked) [Compound A28, 7-(4-Chloro-2-fluorophenyl)-2-(2-cyclopropylacetyl)-1,3,4,11a-tetrahydro-2H,10H-2,4a,10-triaza-dibenzo[a,d]cycloheptene-5,11-dione], for which the remaining activity at 10 µM is 4% and the IC50 was greater than 1000 nM. The like results for `CC(C)(C)CC(=O)N1CCN2C(=O)c3cc(-c4ccc(C(F)(F)F)cc4)ccc3NC(=O)C2C1` (centres unmarked) [Compound A18, 2-(3,3-Dimethylbutyryl)-7-(4-trifluoromethylphenyl)-1,3,4,11a-tetrahydro-2H,10H-2,4a,10-triaza-dibenzo[a,d]cycloheptene-5,11-dione] were, in that order, 70% and greater than 1000 nM. On to `O=C1Nc2ccc(-c3ccc(Cl)cc3)cc2C(=O)N2CCN(C(=O)[C@@H](O)c3ccccc3)C[C@H]12` [Compound A1, (R)-7-(4-Chlorophenyl)-2-((S)-2-hydroxy-2-phenylacetyl)-1,3,4,11a-tetrahydro-2H,10H-2,4a,10-triazadibenzo[a,d]cycloheptene-5,11-dione], for which the IC50 is greater than 1000 nM. Regarding `CC(C)(C)CC(=O)N1CCN2C(=O)c3cc(-c4ccc(Cl)cc4F)ccc3N(CCC3CCNCC3)C(=O)C2C1` (centres unmarked) [Compound A146], the remaining activity at 10 µM came out at 10% and the IC50 was greater than 1000 nM. For `O=C1Nc2ccc(-c3ccc(Cl)cc3)cc2C(=O)N2CCN(C(=O)c3c(C(F)(F)F)nc4ccccn34)CC12` (centres unmarked) [Compound A72, 7-(4-Chlorophenyl)-2-(2-trifluoromethylimidazo[1,2-a]pyridine-3-carbonyl)-1,3,4,11a-tetrahydro-2H,10H-2,4a,10-triazadibenzo[a,d]cycloheptene-5,11-dione], the remaining activity at 10 µM turned out to be 70% and the IC50 is greater than 1000 nM.
